This series is described as follows: gradient 5% acetonitrile 3 min, to 50% in 2 min, to 85% in 15 min, held 3 min, 100 µL/min. As to conditions: column: Zorbax Extend-C18 2.1 x 50 mm; eluents: water / acetonitrile, 0.1% formic acid. The method in brief: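 Retention times come from adduct peaks that were picked computationally and then checked by hand. The standards, pure and pooled in mixtures of ~100 molecules, were run on a Zorbax Extend-C18 column (2.1 × 50 mm, 1.8 μm) at 100 μL/min with water and acetonitrile, each with 0.1% formic acid. Detection was by quadrupole time-of-flight mass spectrometry in positive and negative ionization mode, with a dead volume of 40 μL and a dwell volume of 900 μL.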
In turn, `CC(C)c1ccc(S(=O)(=O)N2CCc3nn(C)c(=O)n3CC2)cc1` displayed an RP-LC retention time of 785 s.

`Cc1nc(-c2ccc(OC3CCN(C(=O)NC4CCCCC4)C3)cc2)no1` (centres undefined) showed an RP-LC retention time of 845 s.

The molecule `CC(=O)N1CCCC1c1nc2ccccc2n1CC(=O)N1CCCC1` (centres undefined) came in with an RP-LC retention time of 574 s. Then `O=c1n(Cc2ccc3c(c2)OCO3)nc2c(-c3nc(-c4ccccc4)no3)cccn12`, with 944 s; and `CCOc1ccc(/C=C/C(=O)Nc2nc(-c3ccc(C)cc3)c(C)s2)cc1`, with 726 s; and `O=C(NCCc1nc(-c2ccc3c(c2)OCO3)n[nH]1)c1ccc(F)cc1Cl`, with 692 s.

As for `O=S(=O)(Nc1ccc(F)cc1)c1cccnc1Nc1ccc(Br)cc1`, the RP-LC retention time turned out to be 1150 s. On to `CCc1nnc2cc(N3CCN(C(=O)Nc4cccc(F)c4)CC3)cnn12`, for which the RP-LC retention time turned out to be 655 s. To `Cc1nc(-c2ccccc2Cl)sc1C(=O)N[C@@H](Cc1c[nH]c2ccccc12)C(=O)O` belongs 898 s. Consider `Cc1cccc(NC(=O)Cn2c(C)nc3onc(C)c3c2=O)c1C`, for which the RP-LC retention time was found to be 861 s. Regarding `CCCn1ccc2sc(C)c(C(=O)N3CCN(c4ccccc4)CC3)c2c1=O`, the RP-LC retention time was determined as 849 s.

On to `Cc1ccc(CC(=O)N2CCC3(CC2)NC(=O)c2cc(C)ccc2N3C)cc1`, for which the RP-LC retention time was determined as 852 s. To `CC(C)c1ccc(CNc2nc3ccncc3n(Cc3ccccc3)c2=O)cc1` belongs 842 s.

Molecule `CCOc1ccc(-c2noc(Cc3nc(-c4ccccc4)cs3)n2)cc1` gave an RP-LC retention time of 1240 s. Then `CCOCC(=O)Nc1ccc(-c2cn3c(C(=O)N(C)C)csc3n2)cc1`, with 647 s; and `CC(C)NC(=O)Cn1cnc2nc(N3CCCC(C(=O)NC4CC4)C3)sc2c1=O` (centres undefined), with 608 s; and `COc1cccc(CNc2cc(-n3nc(C)cc3C)ncn2)c1`, with 896 s. Turning to `CCc1ccc(S(=O)(=O)N2CCC(n3c(-c4ccoc4)nc4cccnc43)C2)cc1` (centres undefined), the RP-LC retention time came to 871 s. The molecule `CCOc1cccc(C2c3[nH]c4ccccc4c3CCN2C(=O)c2ccnn2C)c1` (centres undefined) showed an RP-LC retention time of 1050 s.

The molecule `COc1cccc(N2CCCn3c2nc2c3c(=O)n(CC(=O)O)c(=O)n2C)c1` registered an RP-LC retention time of 671 s. To `Cc1nc(-c2cc(S(=O)(=O)NCc3ccc(OC(C)C)cc3)c(C)s2)sc1C` belongs 1150 s. Then `CC1(C(=O)NCCc2c[nH]c3ccccc23)CCCCC(=O)N1` (centres undefined), with 656 s.

Regarding `Cn1ncc2c(N3CCCC3)nc(C(=O)NCc3cccnc3)nc21`, the RP-LC retention time was determined as 562 s. To `COc1ccc(CN2C=C(C(=O)OCc3cccc(OC)c3)C(C)=NS2(=O)=O)cc1` belongs 1100 s; to `CCOc1cc(-c2nc(C3CC(=O)N(c4ccc(OC)c(OC)c4)C3)no2)cc(OCC)c1OCC` (centres undefined), 1060 s; to `Cc1cccc(OCc2nnc(SCC(=O)Nc3nc(-c4ccccc4)cs3)o2)c1`, 1070 s.

In turn, `COc1ccc(C(=O)N2CCC(c3nc4cccnc4n3C)C2)cc1F` (centres undefined) came in with an RP-LC retention time of 651 s. To `O=C(C1=NN(Cc2cccc(F)c2)c2cc(Cl)ccc2S1(=O)=O)N1CCOCC1` belongs 904 s; to `COc1cccc(NC(=O)Cn2nc3cc(C)nc(Nc4ccc(C)c(F)c4)n3c2=O)c1`, 1100 s; to `O=C(COc1ccccc1)N1CCc2[nH]nc(-c3ccccc3)c2C1`, 788 s. `COC(=O)c1ccc(NC(=O)N2CC(N(C3CCOCC3)S(C)(=O)=O)C2)cc1` registered an RP-LC retention time of 686 s. `O=C(C1=CN(c2ccc3c(c2)OCO3)c2ccccc2S1(=O)=O)N1CCOCC1` showed an RP-LC retention time of 717 s. With `CCc1ccc(-c2nc(C3CC(=O)N(c4ccc(Cl)cc4)C3)no2)cc1` (centres undefined), the RP-LC retention time is 1020 s.

As for `O=C(NC1CCCC1)N1CCN(Cc2nc3cc(-c4ccccc4)ccc3o2)CC1`, the RP-LC retention time was found to be 787 s. To `CCN1C(=O)C2(CCN(S(=O)(=O)c3ccc(C(F)(F)F)cc3)CC2)c2ccccc21` belongs 1130 s; to `CCC(=O)N1CCOc2ccc(NC(=O)C3CC3)cc2C1`, 674 s; to `O=C(NCc1cccnc1-c1ccc(F)cc1)c1ccc(Br)cc1`, 735 s. Then `Cc1cccc(NS(=O)(=O)c2cc3n(c2)CCN(CC(C)C)C3=O)c1`, with 808 s. To `COc1ccccc1C1(CNC(=O)Nc2cccc(Cl)c2)CCOCC1` belongs 867 s. `c1ccc2c(-c3nc(C4CC4)no3)nnc(NC3CCCCC3)c2c1`: the RP-LC retention time is 775 s. To `CCOC(=O)c1cc(C2CC2)nc2c1c(=O)n(Cc1cccc(C)c1)c(=O)n2C` belongs 1230 s; to `O=C(c1ccc(F)c(F)c1)N1CCOC(c2ccccc2)C1` (centres undefined), 845 s. Then `Cc1oc(C2CCN(S(=O)(=O)c3ccc(C#N)cc3)CC2)nc1C(=O)N1CCCC1`, with 872 s; and `Cc1ccc(-c2ccc(=O)n(Cc3nc(-c4ccc(OC(C)C)cc4)no3)n2)cc1`, with 597 s. To `Cc1nc(-c2ccncc2)nc2c1CCC(=O)N2Cc1ccncc1` belongs 540 s; to `COCc1c(C(=O)O)nnn1-c1ccc(F)c(C)c1`, 723 s; to `O=C1CC(c2ccc(F)cc2)Cc2c1cnn2-c1nc2ccccc2[nH]1` (centres undefined), 891 s. Molecule `CCc1cc(N2CCN(C(=O)COc3ccc(OC)cc3)CC2)nc2nnc(C)n12` registered an RP-LC retention time of 613 s.

On to `Cc1oc(C2CCN(C(=O)Cc3c(F)cccc3Cl)CC2)nc1C(=O)N1CCCCC1`, for which the RP-LC retention time worked out at 886 s. With `Cc1ccc(Cn2cc(-c3noc(-c4ccc(N(C)C)cc4)n3)nn2)cc1`, the RP-LC retention time was 1070 s.

For the molecule `CCn1cnc(S(=O)(=O)N2CCC(C(=O)Nc3ccc4c(c3)OCO4)CC2)c1`, the RP-LC retention time was found to be 688 s.

Molecule `COCCCNC(=O)NCc1ccc2c(c1)N(C(=O)c1ccccc1)CC2` came in with an RP-LC retention time of 742 s. Then `Cc1cnc(-c2ccccc2)n1CCNS(=O)(=O)c1ccc2c(c1)CCC2`, with 689 s; and `COc1ccc(Nc2c(-c3ccc(OC)cc3)nc3nc(C)cc(C)n23)cc1`, with 711 s; and `CCCCS(=O)(=O)N1CCC2(CC1)C(=O)N(C)C(=O)N2C`, with 671 s.

`COc1ccc(-c2cnn3c(C)cc(C)nc23)cc1S(=O)(=O)NCCN(C)C` displayed an RP-LC retention time of 616 s. To `O=C1NC(=O)/C(=C/c2ccc(-c3ccc(F)cc3O)o2)S1` belongs 923 s; to `Cc1ccccc1-c1nc2cnccn2c1NCCC(=O)NCC(C)C`, 636 s. To `CSc1ccc(CNc2cc(-n3nc(C)cc3C)ncn2)cc1` belongs 1000 s; to `COc1ccc(NS(=O)(=O)c2ccc(N)cc2)nn1`, 572 s; to `CC(=O)NCc1nc(-c2ccc(N3CCSCC3)nc2)no1`, 653 s.

Molecule `CC12CC(NC(=O)N1c1cccc(C(=O)NCc3ccco3)c1)c1cc(Br)ccc1O2` (centres undefined) registered an RP-LC retention time of 846 s. Take `CC(C)NC(=O)c1ccc2c(c1)CCN2C(=O)C1CC1`: the RP-LC retention time was 808 s.

Molecule `Cc1ccc(NC(=O)Nc2ccc3nnc(C4CCC4)n3c2)cc1Cl` gave an RP-LC retention time of 870 s. Take `Cc1cccc(NC(=O)Cn2cnc3c(sc4nc(-c5ccccc5)ccc43)c2=O)c1`: the RP-LC retention time came out at 1040 s. Then `O=S(=O)(c1ccc(Br)s1)N1CCN(S(=O)(=O)C2CC2)CC1`, with 854 s; and `Cc1ccc(CC(=O)N2CCC3(CC2)NC(=O)c2ccc(F)cc2N3C)cc1`, with 787 s.

As to `O=C1Nc2ccccc2SC1C(=O)N1CCC(C(=O)N2CCN(c3ccc(F)cc3)CC2)CC1` (centres undefined), the RP-LC retention time came out at 778 s. `O=C(CCNc1c(-c2ccccc2)nc2cnccn12)NCc1ccccc1F`: the RP-LC retention time came out at 698 s. To `CCN1c2ccc(F)cc2C(=O)NC12CCN(C(=O)c1ccc(F)c(F)c1)CC2` belongs 822 s; to `CCOc1cc(CNC(=O)C2CCCN(C(=O)c3cc(C)cc(C)c3)C2)cc(OCC)c1OCC` (centres undefined), 968 s; to `COc1cccc(CNC2=NCCNC23CCN(S(=O)(=O)c2ccc(C(C)C)cc2)CC3)c1`, 836 s. Molecule `COc1ccc(Cl)cc1NC(=O)N1CC2CC1C(=O)O2` (centres undefined) returned an RP-LC retention time of 699 s. To `COc1ccccc1-c1noc(C2CCCN2C(=O)Cc2ccc(F)cc2)n1` (centres undefined) belongs 866 s. For the molecule `O=C(Cc1ccccc1Br)N1CCN(Cc2nncn2C2CCCCC2)CC1`, the RP-LC retention time was determined as 642 s. Then `CCN(CC)C(=O)c1ccc(-c2nc3cc(NS(=O)(=O)c4cccs4)ccc3n2C)cc1`, with 679 s; and `COc1ccc(-c2nc3ncccn3c2Nc2ccccc2)cc1`, with 700 s. To `Fc1cccc(-n2cc(-c3noc(-c4ccc5c(c4)OCO5)n3)nn2)c1` belongs 1010 s; to `COc1ccc(NC(=O)Cn2nc3c(Oc4cc(C)cc(C)c4)nccn3c2=O)cc1`, 859 s.

(Values after the METLIN SMRT retention time set (Domingo-Almenara et al. 2019).)
